The values that follow come from publication PMC3393770 (Chembiochem, 2012).

Like-named read-outs stand apart in the source and are kept apart here.

For this test, the target named is T1, Saccharomyces cerevisiae 20S proteasome, β5 subunit (chymotrypsin-like activity) (Saccharomyces cerevisiae, UniProt P23724+P30656).
T1 sequence (P30656 76-287): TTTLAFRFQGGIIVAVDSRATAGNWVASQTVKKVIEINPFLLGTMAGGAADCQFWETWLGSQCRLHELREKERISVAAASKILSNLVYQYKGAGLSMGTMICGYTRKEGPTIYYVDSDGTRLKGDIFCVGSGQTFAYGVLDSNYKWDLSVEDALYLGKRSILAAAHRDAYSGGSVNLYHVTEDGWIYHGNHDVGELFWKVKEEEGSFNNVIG
T1 sequence (P23724 20-241): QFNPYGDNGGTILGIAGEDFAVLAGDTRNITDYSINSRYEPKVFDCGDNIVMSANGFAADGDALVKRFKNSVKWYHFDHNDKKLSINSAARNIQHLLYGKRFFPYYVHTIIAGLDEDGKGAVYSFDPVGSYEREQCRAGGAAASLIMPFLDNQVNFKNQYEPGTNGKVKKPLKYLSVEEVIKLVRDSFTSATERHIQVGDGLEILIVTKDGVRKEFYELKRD
Kind of test: […] proteasome β[…]. It is filed as biochemical.

Where [1] appears, read: read-out: Proteasome Inhibition(IC50), chymotrypsin-like site, 0.5 μg/mL proteasome, covalent (α,β-epoxyketone, Thr1).

As a reminder, the IC50 is the midpoint of a concentration-inhibition curve. In the case of `CCCCCC(=O)N[C@H](C(=O)N[C@@H](CC[S+](C)[O-])C(=O)N[C@@H](CC(C)C)C(=O)[C@@]1(C)CO1)C(C)C` (mixture of isomers) [compound 1, carmaphycin A], the IC50 under setting [1] came out at 2.5 ± 0.3 nM.
Same read-out and setting: in the case of `CCCCCC(=O)N[C@H](C(=O)N[C@@H](CCS(C)(=O)=O)C(=O)N[C@@H](CC(C)C)C(=O)[C@@]1(C)CO1)C(C)C` [compound 2, carmaphycin B] it was 2.6 ± 0.9 nM.
On to `C[C@@]12OC(=O)[C@]1([C@@H](O)[C@@H]1C=CCCC1)NC(=O)[C@@H]2CCCl` [compound 11, salinosporamide A], for which the IC50 turned out to be 1.4 ± 0.2 nM.
